Assay results taken from patent publication EP0199190A2, “Separating element for separating solid particles, suspended in a gaseous current, by centrifugal force in a cylindrical whirl chamber” (Anton Piller GmbH & Co. KG, priority 1985, dated 1986).

Experiments:
[1] = test system: ADP induced aggregation; test: ADP induced aggregation test ex vivo in the rat, orally; settings: single dose of 100 mg/kg
Experimental: (§1) As already stated, the compounds according to the invention show a marked antiplatelet aggregation activity. Moreover, their toxicity is very low. For example, the acute toxicity of the salt above referred by LM-PT bisulfate, was evaluated in the mouse orally and intravenously. The LD50 were about 400 mg/kg and about 100 mg/kg, respectively. The DPPV (disaggregating power percentage value) was evaluated for LM-PT bisulfate, by the ADP induced aggregation test ex vivo in the rat, orally. For a single dose of 100 mg/kg, the DPPV was 92-96%.

[2] = acute toxicity in the mouse, orally and intravenously; settings: in vivo
Experimental: as §1

## Cn1cnc2c1c(=O)n(CCCCC(=O)CN1CCc3sccc3C1)c(=O)n2C [LM-PT bisulfate, N-[2-Reto-6-(3,7-dimethylxanthine-1-yl)hexyl]-4,5,6,7-tetrahydro-thieno[3,2-c]pyridine]
[1]
  DPPV (disaggregating power percentage value): 92-96%
[2]; iv, intravenously
  LD50: ~100 mg/kg
[2]; po, orally
  LD50: ~400 mg/kg
